In patent US20230181535A1, “UBIQUITIN-LIGASE INHIBITORS FOR THE TREATMENT OF CANCER” (FUNDACIÓN PROFESOR NOVOA SANTOS, priority 2020, published 2023):
“Also recorded” adds a separate entry of the source.

Columns and labels:
[1] = system: LoVo cells; test: Phase-contrast cell phenotype, LoVo; format: cell-based
Procedure: MDCK, HEK293T, HepG2, MCF7 and ACHN cells were cultured in Dulbecco's Modified Eagles Medium (DMEM). MDCK stably expressing Hakai cells (Hakai-MDCK) were previously reported and were growth in DMEM with G418 (800 μg/ml). […] LoVo and PC-3 cells were cultured in F-12K Medium (Kaighn's Modification of Ham's F-12 Medium) and HT-29 and HCT116 cells in McCoy's 5a Medium Modified. 5637 cells were cultured in RPMI medium. All culture media were supplemented with 1% penicillin/streptomycin and 10% of heat-inactivated fetal bovine serum (FBS) at 37° C. in a humidified incubator with 5% CO2. Cells were monthly tested for mycoplasma contamination and used only for 1-3 months after defrosted. LoVo and HT29 cells were authenticated with the StemElite ID system (Promega). For phase-contrast images, culture cells were photographed with a Nikon Eclipse-TI microscope.

[2] = system: LoVo cells; test: Immunofluorescence of E-cadherin, LoVo; format: cell-based; conditions: 48 h, vs DMSO
Procedure: For western blot analysis, cells were treated with the indicated inhibitors for 48 h and the whole cell extracts were obtained as described previously. Twenty micrograms of lysates were resolved on a 10% polyacrilamide SDS-PAGE followed by western blot analysis performed as previously described. For immunofluorescence assays cells were grown for 24 h on glass coverslips and treated with the indicated inhibitors for 48 h. Cells were fixed with 4% PFA for 15 min, permeabilized with 0.5% […] and incubated with E-cadherin antibody for 2 h. Coverslips were incubated with fluorescein-tagged secondary antibody (Dakopatts, Sweden) for […]. Finally coverslips were mounted with ProLong Gold antifade reagent (LifeTech, UK) and images were taken in epifluorescence microscope (Olympus) using 40× objective. […] One set of SIM Synthetic Focus images were taken in the DAPI channel for Hoechst 33342 staining, and another set of images were taken in the FITC channel for anti-E-cadherin-AlexaFluor488 labeling and analysed by Structured Illumination Microscopy (SIM™) platform to image the cells and Vala's CyteSeer® Cell-Cell Junction Algorithm to quantify the degree of expression and intracellular location of E-cadherin Vala's CyteSeer® Software can also measure relative DNA content by analyzing Total Integrated Intensity (TII) of the Nuclear Image (Ni) on the Nuclear Mask (Nm). […]

[3] = system: Hakai-MDCK xenograft tumours; test: Tumour xenograft model (Hakai-MDCK cells in nude mice); format: in vivo
Procedure: Xenografts experiments were performed in Experimental Surgery Unit—Technological Training Center from INIBIC in compliance with the European Community Law (86/609/EEC) and the Spanish law (R.D. 53/2013). The experiment was approved by the Ethics Committee for Animal Experimentation of Xerencia de Xestion Integrada da Coruna (XXIAC). Mice were in a 12/12 hours light/dark cycle with water and food available ad libitum. Six weeks old athymic nu/nu mice were randomly distributed in groups. One million of MDCK cells, resuspended in DMEM without serum and antibiotic, were subcutaneously inoculated in both flanks in two groups of 3 animals. The same number of Hakai-MDCK cells were injected in two groups of 4 animals. […] Then, half of the animals were treated with Hakin-1 (5 mg/kg) and the other half with the same concentration of DMSO every 3 days. Tumour outgrowth was monitored twice a week taking measurements of tumour length (L) and width (W) with an electronic calipter. Tumour volume was calculated as pLW2/6. Forty days after inoculation, animals were sacrificed. Tumours, lungs, kidneys and livers were collected and fixed in 4% PFA and embedded in paraffin blocks for histology and/or immunohistochemistry (IHC) analyses.
Tumours and tissues were deparaffinised, rehydrated and stained with haematoxylin and eosin (H&E) as previously described. Tumour sections (4 μm) were also deparaffinised and hydrated for immunohistochemistry. Antigen retrieval was carried by heating the samples (2100 Retriever; PickCell Laboratories) in citrate buffer (Dako REAL, Denmark) or in EDTA buffer. Then, endogenous peroxidase activity was blocked with peroxidase blocking (DakoCytomation, Denmark). Samples were blocked and permeabilized with 0.2% BSA and 0.1% Tx-100 for 1 hour and incubated with the indicated primary antibodies overnight at 4° C. in a wet chamber. Slides were incubated for 1 hour at room temperature with the secondary antibody and detection was carried our using DAB (DakoReal Envision kit) according to manufacturer instructions. Finally, nuclei were counterstained with Gill's Hematoxylin and mounted with DePeX. Pictures were taken with an Olympus microscope. Quantification of images was performed taken 5 photographs of each animal with Image J programme and the represented results are shown as mean±SEM. The number of mitosis was counted in sections stained with H&E. In this case, ten pictures of each tumour were taken with an Olympus BX50 microscope (objective 40×) and the number of mitosis was counted manually. Results are represented as mean±SEM and a representative photograph is shown for each condition.
Real-time PCR was used to study the presence of metastasis in the lung mice. Primers for HA epitope and Hakai present in ectopic HA-tagged Hakai expressed in MDCK-Hakai cells (5′-[…]-3′; 5″-[…]-3′) were used for the quantification. Primers for mouse apolipoprotein B (apob) (5′-[…]-3′; 5′-[…]-3′) were used as endogenous control. MDCK cell line was used as negative control. Lung DNA was extracted from 10-15 sections of paraffin blocks (4 μm) using with QIAamp DNA Mini Kit (Qiagen). The amplification and quantification of DNA was carried by quantitative PCR in technical triplicates by using a LightCycler 480 real-time lightcycler (Roche). Relative DNA levels were calculated by 2^−ΔΔCt method.
Tissue sections from tumours were deparaffinised and rehydrated using standard protocols. The slides were rinsed twice with PBS and treated with citrate buffer buffer (Dako REAL, Denmark) in microwave at 350 W for 5 min. The tissue sections were then analysed with an in situ Cell Death Detection Kit, Fluorescein (Roche) following the manufacturer's instructions. Then, slides were incubated with Hoechst for 5 min in darkness. The reaction was visualized under an epifluorescence Olympus microscope using 20× objective.

[4] = Hakai-MDCK xenograft tumours, immunohistochemistry
[5] = Hakai-MDCK xenograft, nude mice, 5 mg/kg

O=C(O)c1ccc(-n2nnnc2SCC(=O)c2ccc([N+](=O)[O-])cc2)cc1 [Hakin-1, 4-(5-[2-(4-nitrophenyl)-2-oxoethyl]thiol-1H-tetrazol-1-yl)benzoic acid]
cell phenotype by phase contrast [1]: modestly induce an epithelial phenotype
E-cadherin levels at cell-cell contacts (immunofluorescence) [2]: significant increase E-cadherin levels at cell-cell contacts
micrometastasis in lung (quantitative PCR of HA-tagged Hakai DNA) ([3]; Hakai-MDCK xenograft mice, vs DMSO treated mice): significant reduction of micrometastasis
Cortactin expression (immunohistochemistry) ([3]; Hakai-MDCK xenograft tumours): recovered
apoptosis (TUNEL assay) ([3]; Hakai-MDCK xenograft tumours): does not affect cell apoptosis; also recorded: no effect on apoptosis was detected
mitotic-index ([3]; Hakai-MDCK xenograft tumours, H&E): markedly reduce
number of Ki67-positive cells [3, 4]: markedly reduce
number of blood vessels (CD31 angiogenic marker) [3, 4]: strong reduction on the number of blood vessels
N-cadherin mesenchymal marker expression (immunohistochemistry) ([3]; Hakai-MDCK xenograft tumours, vs DMSO treated mice): strongly reduced
tumour cell morphology (H&E) [3, 5]: induction of tumour differentiation and an increase in cytoplasm size
tumour-cell infiltration in blood vessels (H&E) [3, 5]: no infiltration was detected
xenograft tumour growth ([3]; Hakai-MDCK xenograft, nude mice, 5 mg/kg every 3 days, vs DMSO, 5 mg/kg): inhibits tumour growth; also recorded: potent effect on inhibiting xenograft tumour growth; also recorded: strong antitumor effect; also recorded: inhibited tumor growth
tissue damage / systemic toxicity (H&E of organs) ([3]; nude mice treated with 5 mg/kg, 5 mg/kg): Intact cell morphology and tissue structure of liver and kidney; also recorded: no damage was observed in lung and kidney tissues; also recorded: apparently without systemic toxicity
